Assay results from paper PMC8234462, “Novel Cyclophilin Inhibitor Decreases Cell Proliferation and Tumor Growth in Models of Hepatocellular Carcinoma” (Cancers, 2021).
Where two headings read alike, the source gives them in different places.

Assays:
Cyp40 = Cyp40 (Homo sapiens, UniProt Q08752); experiment: PPIase activity assay (chymotrypsin-coupled); format: biochemical; details: free-cell assay; Cyp equilibrated 1 h at 5 °C with inhibitor; read-out: absolute IC50, PPIase activity Cyp40
Experimental: (§1) The PPIase activity of CypA, CypB, CypD and Cyp40 was determined by following the rate of hydrolysis of N-succinyl-Ala-Ala-Pro-Phe-p-nitroanilide by chymotrypsin, a digestive enzyme that only hydrolyzes the trans form of the peptide. Therefore, the hydrolysis of the cis form, the concentration of which is maximized by using a stock dissolved in trifluoroethanol containing 470-mM LiCl, is only possible with the isomerization from the cis to the trans form. […] The reaction was started with the peptide addition, and the change in absorbance was monitored spectrophotometrically at a 6-s interval for 6 min. The blank rates of hydrolysis (in the absence of Cyps) were subtracted from the rates in the presence of Cyps. The initial rates of the enzymatic reaction were analyzed by a first-order regression analysis of the time course of the change in absorbance.

CypA = CypA (Homo sapiens, UniProt P62937); experiment: PPIase activity assay (chymotrypsin-coupled); format: biochemical; details: free-cell assay; Cyp equilibrated 1 h at 5 °C with inhibitor; read-out: absolute IC50, PPIase activity CypA
Experimental: as §1

CypB = CypB (Homo sapiens, UniProt P23284); experiment: PPIase activity assay (chymotrypsin-coupled); format: biochemical; details: free-cell assay; Cyp equilibrated 1 h at 5 °C with inhibitor; read-out: absolute IC50, PPIase activity CypB
Experimental: as §1

CypD = CypD (Homo sapiens, UniProt P30405); experiment: PPIase activity assay (chymotrypsin-coupled); format: biochemical; details: free-cell assay; Cyp equilibrated 1 h at 5 °C with inhibitor; read-out: absolute IC50, PPIase activity CypD
Experimental: as §1

[1] = tested on: primary human hepatocytes; experiment: Cell health parameters by fluorescent imaging (ArrayScan); format: cell-based; details: for AC50: Hepatocyte
Experimental: This experiment was performed in Cyprotex (Watertown, MA, USA). Cryopreserved Primary human hepatocytes plated on 384 black-well plate cells were dosed with NV651 at a range of concentrations (0.195, 0.391, 0.781, 1.56, 3.13, 6.25, 12.5, 25, 50 and 100 µM). At the end of the incubation period (24 or 48 h), several health parameters were analyzed to evaluate the potential cytotoxicity of NV651 in primary human hepatocytes, including the total cell count with Hoechst staining and PI subtraction (a nonpermeable dye to quantify dead cells), nuclear intensity, Glutathione content (GSH), mitochondrial membrane potential, reactive oxygen species (ROS), steatosis, nuclear size and DNA structure. Plates were then scanned using an automated fluorescent cellular imager, ArrayScan (Thermo Scientific Cellomics).

[2] = Pharmacokinetics single oral administration, blood and liver; format: in vivo; details: CD1 mice, 10 mg/kg PO; for Tmax: male, mouse
Experimental: These experiments were performed by Shanghai ChemPartner Co., Ltd. (Shanghai, China) following the guidance described above. Twelve CD1 male mice with a weight between 28–30 g were purchased from SLAC Laboratory Animal Co. Ltd. (Shanghai, China). NV651 was diluted in 5% ethanol, 5% Cremophor EL and 90% saline. A single 10-mg/kg dose of NV651 was given orally (PO). […] At the selected time points, 30 µL of the blood samples were taken via face glass insert or cardiac puncture and placed into K2EDTA tubes. Tissues were terminal-collected at the designated time points. Thirty microliters of blood or liver samples were mixed with 100-µL Pierce Acetonitrile (ACN, Thermo Fisher Scientific, Waltham, MA, USA) containing 20-ng/mL IS (702) used as the internal standard. An aliquot of 10-µL supernatant was injected for LC-MS/MS analysis using LCMSMS-003 (API4000).

Luc+ HEPG2 xenograft = experiment: In vivo efficacy, xenograft tumor growth; design: species or system NMRI nude mice; details: 10 mg/kg daily subcutaneous
Experimental: Twenty-five percent buffered Hydroxy Propyl beta Cyclodextrin (HPbCD) was prepared from Hydroxy Propyl beta Cyclodextrin (Roquette, Lestrem, France), EDTA solution and phosphate buffer at a pH of 7.4, filtered with a […] (VWR, Cat# 28145-483, Radnor, PA, USA) and stored at 4 °C. NV651 was prepared at a concentration of 10 mg/kg with 25% buffered HPbCD (vehicle). NV651 solution was sonicated for 30 min in a water bath sonicator (Bioruptor, Diagenode, Denville, NJ, USA) and shaken for up to an hour, followed by a secondary sterilization with a 0.2-µm filter. NV651 solution was stored at 4 °C up to 2 weeks, with stability confirmed up to 3 weeks.
HEPG2 cells were transduced with RediFect Red-FLuc-GFP (Perkin Elmer, Cat# CLS960003, Waltham, MA, USA) with a MOI = 3 and sorted for GFP^+ in a FACSAria III (BD Biosciences, Franklin Lakes, NJ, USA). […] Cell viability and a percentage of the GFP^+ cells were analyzed before the start of the in vivo experiment with a BD FACSverse cytometer (BD Biosciences, Franklin Lakes, NJ, USA). […]
Tumor growth was assessed with an in vivo imaging system (IVIS) one week after the injection of the cells. […] Body weights were measured at time 0 of the treatment and twice a week after the beginning of the treatment. […] Tumor growth was analyzed for up to 3 weeks. […]

Sequence of Cyp40 (Q08752 whole entry): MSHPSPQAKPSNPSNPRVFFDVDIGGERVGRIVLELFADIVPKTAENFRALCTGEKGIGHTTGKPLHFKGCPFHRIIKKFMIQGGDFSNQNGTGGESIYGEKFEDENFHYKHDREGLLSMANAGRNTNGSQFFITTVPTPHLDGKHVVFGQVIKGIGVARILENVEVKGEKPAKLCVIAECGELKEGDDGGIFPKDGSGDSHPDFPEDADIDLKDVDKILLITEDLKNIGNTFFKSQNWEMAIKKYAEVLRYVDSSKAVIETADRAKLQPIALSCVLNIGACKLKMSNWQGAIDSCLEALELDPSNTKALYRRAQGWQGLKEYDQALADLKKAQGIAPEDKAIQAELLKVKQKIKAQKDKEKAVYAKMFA
Sequence of CypD (P30405 30-207): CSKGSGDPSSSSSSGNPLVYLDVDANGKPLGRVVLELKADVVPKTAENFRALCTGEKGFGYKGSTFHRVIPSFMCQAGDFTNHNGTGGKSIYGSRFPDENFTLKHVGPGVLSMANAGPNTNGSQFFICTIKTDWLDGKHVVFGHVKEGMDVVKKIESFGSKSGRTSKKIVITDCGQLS
Sequence of CypB (P23284 34-216): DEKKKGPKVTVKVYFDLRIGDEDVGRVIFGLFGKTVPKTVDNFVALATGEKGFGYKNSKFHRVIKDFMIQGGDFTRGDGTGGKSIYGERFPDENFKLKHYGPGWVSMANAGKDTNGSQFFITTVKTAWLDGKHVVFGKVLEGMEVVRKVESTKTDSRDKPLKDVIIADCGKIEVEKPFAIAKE
Sequence of CypA (P62937 whole entry): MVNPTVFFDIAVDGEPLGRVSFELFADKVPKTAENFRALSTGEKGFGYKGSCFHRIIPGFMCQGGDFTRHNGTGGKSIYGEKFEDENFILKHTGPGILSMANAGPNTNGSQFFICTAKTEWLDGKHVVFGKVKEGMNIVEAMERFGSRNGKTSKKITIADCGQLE

## CC(=O)CCC1C(=O)NC(C(C)C)C(=O)NC(Cc2cc(O)cc(F)c2)C(=O)N2CCCC(N2)C(=O)OC(C(C)=CC=CC(=O)OC(C)(C)C)CC=CC=CC(O)C(C)C1O (stereo not shown) [NV651]
Cyp40
  IC50: 0.000821 µM
CypA
  IC50: 0.00049 µM
CypB
  IC50: 0.000824 µM
CypD
  IC50: 0.000842 µM
[1]; 24 h
  MEC, Glutathione content: 2.62 µM
  MEC, Mitochondrial Membrane potential: 12.40 µM
  MEC, Nuclear intensity: 8.90 µM
  MEC, ROS: 6.43 µM
[1]; 48 h
  MEC, Cell count (PI corrected): 6.14 µM
  MEC, DNA structure: 10.90 µM
  MEC, Nuclear size: 18.10 µM
  MEC, Steatosis: 6.81 µM
[1]; 24 h, read-out: AC50, Glutathione content
  AC50: 10.9 µM
[1]; 24 h, read-out: AC50, Mitochondrial Membrane potential
  AC50: 14.2 µM
[1]; 24 h, read-out: AC50, Nuclear intensity
  AC50: 8.94 µM
[1]; 24 h, read-out: AC50, ROS
  AC50: 8.17 µM
[1]; 48 h, read-out: AC50, Cell count (PI corrected)
  AC50: 13.9 µM
[1]; 48 h, read-out: AC50, DNA structure
  AC50: 34.4 µM
[1]; 48 h, read-out: AC50, Nuclear size
  AC50: 21.5 µM
[1]; 48 h, read-out: AC50, Steatosis
  AC50: 39 µM
[2]; 24 h after treatment
  level in liver relative to blood: three-fold higher level in the liver than blood
[2]; blood, read-out: Tmax in blood
  Tmax: 1 h
[2]; liver, read-out: Tmax in liver
  Tmax: 1 h
Luc+ HEPG2 xenograft; after 3 weeks of treatment
  luminescence signal (tumor growth, IVIS) vs vehicle: significantly reduced
Luc+ HEPG2 xenograft; up to 3 weeks
  tumor growth by caliper measurements vs vehicle: reduced tumor growth
